Measured values from patent publication USRE47528E1, “Protease for wound conditioning and skin care” (B.R.A.I.N. BIOTECHNOLOGY RESEARCH AND INFORMATION NETWORK AG, priority 2009, dated 2019).
“Also recorded” adds a separate entry of the source.

Assays:
[1] = tested on: debrilase; assay: Liquid phase activity assay and inhibitory profiling (BODIPY-FL-Casein fluorescence assay); format: biochemical, Lucilia sericata; conditions: for inhibition of debrilase activity: PMSF 5 mmol/l, APMSF 1 mmol/l
Experimental: Quantification of proteolytic activity was conducted by a fluorescence assay in 96-well plates with BODIPY-FL-Casein (Molecular Probes) used as substrate. Hereby, on the undigested substrate casein the labelling molecules are in close contact to each other and therefore fluorescence is suppressed by a quenching mechanism. In case of hydrolysis these molecules separate from each other and fluorescence can be excited at 485 nm and measured at 520 nm.
A standard assay contained 5 μg/ml BODIPY-FL-Casein in 100 μl PBS buffer and a series of dilutions of protease extract. Samples were incubated for 60 min at 37° C. and fluorescence was measured using a spectrophotometer (NovoStar, BMG LABTECH, Offenburg, Germany), applying the following parameters: excitation 485 nm, emission 520 nm, gain 5, one cycle, 10 flashes. Serine protease inhibitors APMSF (4-amidinophenylmethanesulfonyl fluoride) and PMSF (phenylmethanesulfonyl fluoride) were used for testing the specificity of the isolated protease. The following assay concentration were used:
The recombinant protease type was identified in a liquid assay in a 96-well plate using inhibitors specific for different types of proteases. Herein, specific inhibitors for trypsin (4-amidinophenylmethyl-sulphonyl fluoride, APMSF), serine (phenylmethylsulphonyl fluoride, PMSF), aspartyl-(pepstatin A) and metallo-type proteases (1,10-phenanthroline) were measured.

[2] = tested on: larval secretions; conditions: cited from earlier work
[3] = tested on: Lucilia sericata debrilase (trypsin-like serine protease), mature protein SEQ ID NO: 4, pre-propeptide SEQ ID NO: 2; assay: Enzyme kinetics of Debrilase, fluorometric assay with Z-Gly-Gly-Arg-AMC; format: biochemical
Experimental: (§1) Activity of the debrilase was measured in liquid assay using appropriate buffer systems in the range of 3-10 (0.1 to 0.2 M citric acid buffer, pH 3-7; 0.05 M tris buffer, pH 8; 0.1 M carbonate buffer, pH 9-10) and the fluorogenic substrate Z-Gly-Gly-Arg-AMC. The release of 7-amino-4-methylcoumarin (AMC) was measured with a BMC Novostar Fluorometer (λexcitation 365 nm, λemission 440 nm).
Molecular and Enzymatic Properties of Debrilase

[4] = tested on: casein; assay: Diffusion assay on agar containing casein / skim milk; format: biochemical
Description: FIG. 1: Diffusion assay on agar containing casein showing a clearing zone around a debrilase secreting clone of E. coli.
Colony forming units resulted from mass excision described above were screened on agar media containing 2% skim milk under selective conditions. Expression of heterologous proteases was driven by the vector comprising inducible Plac promoter. Colonies expressing heterologous proteases were detected by the formation of clearing zones in the turbid Skim Milk medium around the colonies.

[5] = tested on: fibrin; assay: Solid phase activity assay for fibrinolytic activity (fibrin agar); format: biochemical; conditions: fibrin containing agar
Experimental: To identify fibrinolytic activity in extracts of casein degrading clones a solid agar assay was used. For this, a solution A containing 200 mg agarose, 87 mg NaCl and 3 mg CaCl2 were added to 10 ml 0.1 M Tris pH7.4 and incubated at 50° C. To a second solution B containing 10 ml 0.9% NaCl and 100 mg Fibrin (Sigma F3879), 20 μl Plasminogen (2 units/mg, Sigma P7397) e added and pre-incubated at 50° C. Both solutions were combined with 12 μl Thrombin (175-350 NIH units, Sigma T4265) and spread on agar plates using micro-well forming devices. In case of a fibrinolytic activity a clear zone appears in the opaque medium around extract containing cavities.
To identify fibrinolytic activity in casein degrading clones a solid agar assay was used. Therefore a medium A consisting of 10 ml 2× Luria Bertani containing 200 mg agarose, 87 mg NaCl and 3 mg CaCl2 was incubated at 50° C. To a solution B containing 10 ml 0.9% NaCl and 100 mg Fibrin (Sigma F3879), 20 μl plasminogen (2 units/mg, Sigma P7397) was added and pre-incubated at 50° C. […]
Fibrinolytic activity in cell free crude extracts was determined using buffered agar medium containing fibrin. […] Crude extract with fibrinolytic activity was detected by a clear zone around microwells of the recombinant clone harbouring the protease gene of SEQ ID NO. […]

[6] = tested on: Z-Gly-Gly-Arg-AMC; assay: Fluorometric liquid assay using Z-Gly-Gly-Arg-AMC as substrate; format: biochemical
Experimental: as §1

[7] = target: T1, human PAR2 (Homo sapiens, UniProt P55085); assay: Activation of PAR 2 (calcium imaging) in HEK293 cells; format: cell-based; conditions: HEK293 cells endogenously expressing human PAR2, Ca2+-flux read-out
T1 construct: wild type HEK293 cell line endogenously expressing human PAR2; endogenous in cells; host or cells: HEK293
T1 sequence (P55085 26-397): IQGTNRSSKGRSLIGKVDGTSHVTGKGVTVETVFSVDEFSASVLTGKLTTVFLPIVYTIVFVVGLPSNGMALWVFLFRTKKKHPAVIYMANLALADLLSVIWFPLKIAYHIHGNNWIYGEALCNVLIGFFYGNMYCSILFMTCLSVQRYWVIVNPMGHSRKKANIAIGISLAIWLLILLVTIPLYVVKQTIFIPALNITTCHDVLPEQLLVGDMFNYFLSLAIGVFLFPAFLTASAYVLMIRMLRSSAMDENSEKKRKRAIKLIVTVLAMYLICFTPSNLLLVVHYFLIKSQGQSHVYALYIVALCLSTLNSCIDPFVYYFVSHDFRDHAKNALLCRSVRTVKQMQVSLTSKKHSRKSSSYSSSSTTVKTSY
Experimental: The activity of debrilase as agonist of PAR 2 was monitored over time in a cell based fluorescence assay by use of a wild type HEK293 cell line endogenously expressing human PAR2. In brief, 1 day prior to performing the assay, HEK293 cells expressing human PAR2 were plated onto 96-well, black-walled, assay plates, at a density of 45,000 cells per well. Using a 96-well microplate reader (FlexStation®, Molecular Devices, Sunnyvale, Calif.), the change of the cellular calcium concentration was monitored by use of the calcium sensitive fluorescent dye fluo-4 (excitation 494 nm, emission 516 nm). The PAR 2 agonist trypsin (8 nM) was used as positive control. The dye-loaded cells in plates were placed into the fluorescence microplate reader to monitor fluorescence (excitation 488 nm, emission 520 nm) change after the addition of 50 μl assay buffer (118 mM NaCl; 4.7 mM KCl; 1.2 mM MgSO4; 1.2 mM KH2PO4 4.2 mM […]; 1.3 mM CaCl2; 10 mM HEPES (pH: 7.4)) supplemented with an agonist. Calcium mobilization was quantified as the change of peak fluorescence (ΔF) over the baseline level (F). Data were expressed as the mean S.E. of the ΔF/F value (=RFU, relative fluorescence units) of replicated independent samples. The analysis was done with the software of the FlexStation®.

[8] = tested on: Tosyl-Gly-Pro-Arg-AMC; assay: Proteolytic activity against Tosyl-Gly-Pro-Arg-AMC; format: biochemical
[9] = tested on: Suc-Ala-Ala-Phe-AMC; assay: Proteolytic activity against Suc-Ala-Ala-Phe-AMC; format: biochemical

In the case of N=C(N)c1ccc(CS(=O)(=O)F)cc1 [APMSF, 4-amidinophenylmethanesulfonyl fluoride], the “inhibition of proteolytic activity of debrilase against casein and fibrin” value [1] is given as “inhibited”, the “inhibition of debrilase activity” value [1] is given as “inhibited completely” and the “inhibition of degradation of laminin and fibronectin by larval secretions” value (“inhibition of degradation … by larval secretions” for short) [2] is given as “not significantly”.

For c1cnc2c(c1)ccc1cccnc12 [1,10-phenanthroline], the “inhibition of degradation … by larval secretions” value [2] is given as “not significantly”.

In the case of O=S(=O)(F)Cc1ccccc1 [PMSF, phenylmethanesulfonyl fluoride], the “inhibition of proteolytic activity of debrilase against casein and fibrin” value [1] is given as “inhibited”, the “inhibition of debrilase activity” value [1] is given as “inhibited completely” and the “inhibition of degradation … by larval secretions” value [2] is given as “inhibited”.

In the case of Cc1cc(=O)oc2cc(NC(=O)[C@H](CCCNC(=N)N)NC(=O)CNC(=O)CNC(=O)OCc3ccccc3)ccc12 [Z-Gly-Gly-Arg-AMC], the Kcat ([3]; Table 1, substrate Z-Gly-Gly-Arg-AMC (footnote)) is reported as 37.5 s⁻¹ and the Km ([3]; substrate Z-Gly-Gly-Arg-AMC, fluorometric assay) is reported as 70 µM.

B1: debrilase: recombinant trypsin-like serine protease from Lucilia sericata; mature protein SEQ ID NO: 4 (protein, listed as Lucilia sericata)
chain: IVNGVDTTIQAHPYQVSLQTNNGFHFCGGSIISEDIIVTAAHCMQSYKAYQFKVRLGSTEYDNGGELVAVKSFKYHEGYNPETMVNDVAVIKLATPVRESSKVRYVKLAEKTPATGTPAVVTGWGSKCFLFCQTAPKVLQKVEVDIVDEKTCASSEYKYGDDIKETMLCAYAVKKDACQGDSGGPLVANNKLVGVVSWGKGCALAGYPGVYCDVATVRSWIEKTAKSL
With B1 the “caseinolytic activity (cleavage of casein)” value [4] was “clearing zone; also recorded: ability to cleave fibrin and casein; also recorded: exhibits proteolytic activity against fibrin, casein”, the “fibrinolytic activity (cleavage of fibrin)” value [5] was “clearing zone; also recorded: ability to cleave fibrin; also recorded: exhibits proteolytic activity against fibrin” and the Topt [6] was 37 °C. For the same molecule, the pHopt [6] was 8, the “pH-range of enzymatic activity” value ([6]; buffer systems in the range of pH 3-10, Z-Gly-Gly-Arg-AMC) was 5-10 pH and the specific activity ([6]; fluorometric assay using Z-Gly-Gly-Arg-AMC as substrate) was 90 μmol* · min^−1 · mg^−1 enzyme. The “activation of protease-activated receptor 2 (PAR 2)” value [7] was “activates the protease-activated receptor PAR-2”, the “proteolytic activity against Tosyl-Gly-Pro-Arg-AMC” value [8] was “exhibits proteolytic activity against fibrin, casein and Tosyl-Gly-Pro-Arg-AMC” and the “proteolytic activity against Suc-Ala-Ala-Phe-AMC” value [9] was “not against Suc-Ala-Ala-Phe-AMC”.
